In this assay the target is T1, human MPO (Homo sapiens, UniProt P05164).
T1 sequence (P05164 49-745): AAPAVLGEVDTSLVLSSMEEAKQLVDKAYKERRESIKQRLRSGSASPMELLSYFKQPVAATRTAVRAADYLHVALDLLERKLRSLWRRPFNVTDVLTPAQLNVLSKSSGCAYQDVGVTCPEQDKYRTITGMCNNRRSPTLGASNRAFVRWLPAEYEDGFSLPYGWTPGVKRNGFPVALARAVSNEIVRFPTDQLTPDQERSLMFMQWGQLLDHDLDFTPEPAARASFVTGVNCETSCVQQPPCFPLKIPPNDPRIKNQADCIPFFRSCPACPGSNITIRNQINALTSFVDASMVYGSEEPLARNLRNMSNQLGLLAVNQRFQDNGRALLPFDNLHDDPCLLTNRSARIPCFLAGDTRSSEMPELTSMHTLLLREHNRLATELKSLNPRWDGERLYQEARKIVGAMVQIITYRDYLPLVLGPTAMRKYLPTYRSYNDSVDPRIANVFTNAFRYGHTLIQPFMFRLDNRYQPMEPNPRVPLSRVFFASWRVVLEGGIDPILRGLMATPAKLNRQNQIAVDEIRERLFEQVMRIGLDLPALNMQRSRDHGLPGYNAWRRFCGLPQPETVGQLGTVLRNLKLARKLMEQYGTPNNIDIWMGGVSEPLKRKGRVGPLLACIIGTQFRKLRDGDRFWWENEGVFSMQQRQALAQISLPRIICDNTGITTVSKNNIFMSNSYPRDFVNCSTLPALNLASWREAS
As to the kind of experiment: MPO inhibition activity: inhibition of halogenation of tyrosine residues of biotin-labeled BSA (ELISA with 3A5 antibody). It is filed as biochemical. As to conditions: sample prepared to 5 mM, 10 μl in about 110 μl reaction; 30 minutes at 37° C.; absorbancy 450 nm/550 nm. As to the method: The MPO inhibition activities of the isolated MGGD and its aglycon MSYR were measured by evaluating inhibition of the halogenation of the tyrosine residues of a biotin-labeled protein (bovine serum albumin). It is thus possible to measure either inhibition of the MPO enzyme itself or the ability to extinguish or capture hypobromous acid (HOBr) and other active species produced by the enzyme.
The necessary solutions and the like for the reaction were prepared as follows.
(2) Xanthine oxidase (XOD) (Sigma X4500-25UN) diluted 100× with water.
(4) Biotin-BSA (Sigma-A6043-10MG) dissolved to 1 mg/ml in 0.1 M phosphate buffer with 200 μM NaBr and 200 mM NaCl added in advance, then freeze dried for storage, and diluted to 0.4 mg/ml before use.
(5) Sample prepared to 5 mM.
(6) Reduced glutathione (GSH) (Sigma G-6529) as a positive control.
(7) L-methionine, dissolved in water to 10 mM. […]
50 μl of a 10 μg/ml concentration 3A5 antibody (Nikken Seil) recognizing dihalogenated tyrosines was coated as a primary antibody on each microplate, and left standing overnight at 4° C. […] This was then left standing again for 45 minutes at 37° C. and washed, after which 100 μl of a TMB (3,3′-5,5′-tetramethylbentidine) coloring reagent (A liquid/B liquid=1/1) was added, and absorbancy was measured at 450 nm/550 nm for about 10 minutes with a microplate reader.
(In general: An ELISA detects its analyte on a solid surface through an enzyme-linked reagent.)

For `COC(=O)c1cc(OC)c(O[C@@H]2O[C@H](CO[C@@H]3O[C@H](CO)[C@@H](O)[C@H](O)[C@H]3O)[C@@H](O)[C@H](O)[C@H]2O)c(OC)c1` [MGGD, methyl-4-O-[β-D-glucopyranosyl-(1→6)-β-D-glucopyranosyl]-3,5-dimethoxybenzoate], the “MPO enzyme inhibition activity (halogenated tyrosine production vs control with no added antioxidant)” value was “exhibited MPO enzyme inhibition activity”.

The record behind these values is patent publication US9630984B2, “Compound contained in manuka honey and use of same” (HEALTHCARE SYSTEMS, priority 2011, dated 2017).
